Results: ChEMBL document CHEMBL1145677, “In Vitro Action of ent -Manoyl Oxides against Leishmania donovani” (1997)

Experiments:
Format in all cases: functional
Leishmania donovani [1] = assay: Antileishmanial activity against Leishmania donovani LCR-L133 promastigotes at 1 […] after 72 hrs relative to control
Leishmania donovani [2] = assay: Antileishmanial activity against Leishmania donovani LCR-L133 amastigotes at 100 ug/ml after 48 hrs relative to control
Leishmania donovani [3] = assay: Antileishmanial activity against Leishmania donovani LCR-L133 promastigotes at 100 […] after 72 hrs relative to control
Leishmania donovani [4] = assay: Antileishmanial activity against Leishmania donovani LCR-L133 amastigotes at 100 ug/ml after 72 hrs relative to control
Leishmania donovani [5] = assay: Antileishmanial activity against Leishmania donovani LCR-L133 promastigotes at 10 […] after 72 hrs relative to control
Leishmania donovani [6] = assay: Antileishmanial activity against Leishmania donovani LCR-L133 promastigotes at 10 […] after 24 hrs relative to control
Leishmania donovani [7] = assay: Antileishmanial activity against Leishmania donovani LCR-L133 amastigotes at 1 ug/ml after 72 hrs relative to control
Leishmania donovani [8] = assay: Antileishmanial activity against Leishmania donovani LCR-L133 amastigotes at 10 ug/ml after 72 hrs relative to control
Leishmania donovani [9] = assay: Antileishmanial activity against Leishmania donovani LCR-L133 amastigotes at 10 ug/ml after 24 hrs relative to control
Leishmania donovani [10] = assay: Antileishmanial activity against Leishmania donovani LCR-L133 promastigotes at 100 […] after 24 hrs relative to control
Leishmania donovani [11] = assay: Antileishmanial activity against Leishmania donovani LCR-L133 promastigotes at 10 […] after 48 hrs relative to control
Leishmania donovani [12] = assay: Antileishmanial activity against Leishmania donovani LCR-L133 promastigotes at 1 […] after 24 hrs relative to control
Leishmania donovani [13] = assay: Antileishmanial activity against Leishmania donovani LCR-L133 amastigotes at 1 ug/ml after 24 hrs relative to control
Leishmania donovani [14] = assay: Antileishmanial activity against Leishmania donovani LCR-L133 promastigotes at 100 […] after 48 hrs relative to control
Leishmania donovani [15] = assay: Antileishmanial activity against Leishmania donovani LCR-L133 amastigotes at 100 ug/ml after 24 hrs relative to control
Leishmania donovani [16] = assay: Antileishmanial activity against Leishmania donovani LCR-L133 amastigotes at 1 ug/ml after 48 hrs relative to control
Leishmania donovani [17] = assay: Antileishmanial activity against Leishmania donovani LCR-L133 promastigotes at 1 […] after 48 hrs relative to control
Leishmania donovani [18] = assay: Antileishmanial activity against Leishmania donovani LCR-L133 amastigotes at 10 ug/ml after 48 hrs relative to control

Molecule: C=C[C@]1(C)O[C@@]2(C)C[C@H](O)[C@@H]3C(C)(C)[C@H](O)CC[C@@]3(C)[C@@H]2CC1=O
- Activity (Leishmania donovani [1]): 0%
- Activity (Leishmania donovani [2]): 15%
- Activity (Leishmania donovani [3]): 0%
- Activity (Leishmania donovani [4]): 19%
- Activity (Leishmania donovani [5]): 0%
- Activity (Leishmania donovani [6]): 0%
- Activity (Leishmania donovani [7]): 0%
- Activity (Leishmania donovani [8]): 0%
- Activity (Leishmania donovani [9]): 0%
- Activity (Leishmania donovani [10]): 0%
- Activity (Leishmania donovani [11]): 0%
- Activity (Leishmania donovani [12]): 0%
- Activity (Leishmania donovani [13]): 0%
- Activity (Leishmania donovani [14]): 0%
- Activity (Leishmania donovani [15]): 14%
- Activity (Leishmania donovani [16]): 0%
- Activity (Leishmania donovani [17]): 0%
- Activity (Leishmania donovani [18]): 0%

Molecule: C=C[C@]1(C)O[C@@]2(C)CC[C@@H]3C(C)(C)[C@@H](OC(C)=O)CC[C@@]3(C)C2=CC1=O
- Activity (Leishmania donovani [1]): 0%
- Activity (Leishmania donovani [2]): 45%
- Activity (Leishmania donovani [3]): 100%
- Activity (Leishmania donovani [4]): 50%
- Activity (Leishmania donovani [5]): 0%
- Activity (Leishmania donovani [6]): 0%
- Activity (Leishmania donovani [7]): 12%
- Activity (Leishmania donovani [8]): 34%
- Activity (Leishmania donovani [9]): 12%
- Activity (Leishmania donovani [10]): 100%
- Activity (Leishmania donovani [11]): 0%
- Activity (Leishmania donovani [12]): 0%
- Activity (Leishmania donovani [13]): 0%
- Activity (Leishmania donovani [14]): 100%
- Activity (Leishmania donovani [15]): 32%
- Activity (Leishmania donovani [16]): 0%
- Activity (Leishmania donovani [17]): 0%
- Activity (Leishmania donovani [18]): 21%

Molecule: C=C[C@]1(C)O[C@@]2(C)CC[C@@H]3C(C)(C)[C@H](O)CC[C@@]3(C)[C@@H]2C[C@@H]1O
- Activity (Leishmania donovani [1]): 0%
- Activity (Leishmania donovani [2]): 31%
- Activity (Leishmania donovani [3]): 0%
- Activity (Leishmania donovani [4]): 35%
- Activity (Leishmania donovani [5]): 0%
- Activity (Leishmania donovani [6]): 0%
- Activity (Leishmania donovani [7]): 0%
- Activity (Leishmania donovani [8]): 11%
- Activity (Leishmania donovani [9]): 0%
- Activity (Leishmania donovani [10]): 0%
- Activity (Leishmania donovani [11]): 0%
- Activity (Leishmania donovani [12]): 0%
- Activity (Leishmania donovani [13]): 0%
- Activity (Leishmania donovani [14]): 31%
- Activity (Leishmania donovani [15]): 15%
- Activity (Leishmania donovani [16]): 0%
- Activity (Leishmania donovani [17]): 0%
- Activity (Leishmania donovani [18]): 6%

Molecule: C=C[C@@]1(C)CC[C@H]2[C@]3(C)CC[C@@H](O)C(C)(C)[C@H]3[C@@H](O)C[C@]2(C)O1
- Activity (Leishmania donovani [1]): 0%
- Activity (Leishmania donovani [2]): 51%
- Activity (Leishmania donovani [3]): 0%
- Activity (Leishmania donovani [4]): 67%
- Activity (Leishmania donovani [5]): 0%
- Activity (Leishmania donovani [6]): 0%
- Activity (Leishmania donovani [7]): 14%
- Activity (Leishmania donovani [8]): 33%
- Activity (Leishmania donovani [9]): 10%
- Activity (Leishmania donovani [10]): 0%
- Activity (Leishmania donovani [11]): 0%
- Activity (Leishmania donovani [12]): 0%
- Activity (Leishmania donovani [13]): 0%
- Activity (Leishmania donovani [14]): 52%
- Activity (Leishmania donovani [15]): 34%
- Activity (Leishmania donovani [16]): 0%
- Activity (Leishmania donovani [17]): 0%
- Activity (Leishmania donovani [18]): 24%

Molecule: C=C[C@@]1(C)CC[C@H]2[C@]3(C)CCC(=O)C(C)(C)[C@H]3CC[C@]2(C)O1
- Activity (Leishmania donovani [1]): 0%
- Activity (Leishmania donovani [2]): 48%
- Activity (Leishmania donovani [3]): 80%
- Activity (Leishmania donovani [4]): 56%
- Activity (Leishmania donovani [5]): 0%
- Activity (Leishmania donovani [6]): 0%
- Activity (Leishmania donovani [7]): 10%
- Activity (Leishmania donovani [8]): 25%
- Activity (Leishmania donovani [9]): 7%
- Activity (Leishmania donovani [10]): 51%
- Activity (Leishmania donovani [11]): 0%
- Activity (Leishmania donovani [12]): 0%
- Activity (Leishmania donovani [13]): 0%
- Activity (Leishmania donovani [14]): 86%
- Activity (Leishmania donovani [15]): 20%
- Activity (Leishmania donovani [16]): 10%
- Activity (Leishmania donovani [17]): 0%
- Activity (Leishmania donovani [18]): 17%

Molecule: C=C[C@@]1(C)CC[C@H]2[C@]3(C)CC[C@@H](O)C(C)(C)[C@H]3CC[C@]2(C)O1
- Activity (Leishmania donovani [1]): 0%
- Activity (Leishmania donovani [2]): 25%
- Activity (Leishmania donovani [3]): 52%
- Activity (Leishmania donovani [4]): 39%
- Activity (Leishmania donovani [5]): 0%
- Activity (Leishmania donovani [6]): 0%
- Activity (Leishmania donovani [7]): 0%
- Activity (Leishmania donovani [8]): 18%
- Activity (Leishmania donovani [9]): 0%
- Activity (Leishmania donovani [10]): 27%
- Activity (Leishmania donovani [11]): 0%
- Activity (Leishmania donovani [12]): 0%
- Activity (Leishmania donovani [13]): 0%
- Activity (Leishmania donovani [14]): 70%
- Activity (Leishmania donovani [15]): 17%
- Activity (Leishmania donovani [16]): 7%
- Activity (Leishmania donovani [17]): 0%
- Activity (Leishmania donovani [18]): 13%

Molecule: C=C[C@]1(CO)CC[C@H]2[C@]3(C)CCC(=O)[C@](C)(C(=O)OC)[C@H]3CC[C@]2(C)O1
- Activity (Leishmania donovani [1]): 0%
- Activity (Leishmania donovani [2]): 14%
- Activity (Leishmania donovani [3]): 34%
- Activity (Leishmania donovani [4]): 19%
- Activity (Leishmania donovani [5]): 0%
- Activity (Leishmania donovani [6]): 0%
- Activity (Leishmania donovani [7]): 0%
- Activity (Leishmania donovani [8]): 0%
- Activity (Leishmania donovani [9]): 0%
- Activity (Leishmania donovani [10]): 0%
- Activity (Leishmania donovani [11]): 0%
- Activity (Leishmania donovani [12]): 0%
- Activity (Leishmania donovani [13]): 0%
- Activity (Leishmania donovani [14]): 22%
- Activity (Leishmania donovani [15]): 9%
- Activity (Leishmania donovani [16]): 0%
- Activity (Leishmania donovani [17]): 0%
- Activity (Leishmania donovani [18]): 0%

Molecule: MEGLUMINE ANTIMONATE
- Activity (Leishmania donovani [1]): 39%
- Activity (Leishmania donovani [3]): 76%
- Activity (Leishmania donovani [5]): 42%
- Activity (Leishmania donovani [6]): 28%
- Activity (Leishmania donovani [10]): 70%
- Activity (Leishmania donovani [11]): 40%
- Activity (Leishmania donovani [12]): 4%
- Activity (Leishmania donovani [14]): 74%
- Activity (Leishmania donovani [17]): 20%

Molecule: C=C[C@]1(C)O[C@@]2(C)C[C@H](O)[C@@H]3C(C)(C)[C@H](O)CC[C@@]3(C)[C@@H]2C[C@@H]1O
- Activity (Leishmania donovani [1]): 0%
- Activity (Leishmania donovani [2]): 46%
- Activity (Leishmania donovani [3]): 0%
- Activity (Leishmania donovani [4]): 50%
- Activity (Leishmania donovani [5]): 0%
- Activity (Leishmania donovani [6]): 0%
- Activity (Leishmania donovani [7]): 0%
- Activity (Leishmania donovani [8]): 16%
- Activity (Leishmania donovani [9]): 7%
- Activity (Leishmania donovani [10]): 0%
- Activity (Leishmania donovani [11]): 0%
- Activity (Leishmania donovani [12]): 0%
- Activity (Leishmania donovani [13]): 0%
- Activity (Leishmania donovani [14]): 0%
- Activity (Leishmania donovani [15]): 35%
- Activity (Leishmania donovani [16]): 0%
- Activity (Leishmania donovani [17]): 0%
- Activity (Leishmania donovani [18]): 11%

Molecule: C=C[C@]1(C)O[C@@]2(C)CC[C@@H]3C(C)(C)[C@H](O)CC[C@@]3(C)[C@@H]2C[C@H]1O [VARODIOL]
- Activity (Leishmania donovani [1]): 0%
- Activity (Leishmania donovani [2]): 29%
- Activity (Leishmania donovani [3]): 0%
- Activity (Leishmania donovani [4]): 33%
- Activity (Leishmania donovani [5]): 0%
- Activity (Leishmania donovani [6]): 0%
- Activity (Leishmania donovani [7]): 0%
- Activity (Leishmania donovani [8]): 12%
- Activity (Leishmania donovani [9]): 0%
- Activity (Leishmania donovani [10]): 0%
- Activity (Leishmania donovani [11]): 0%
- Activity (Leishmania donovani [12]): 0%
- Activity (Leishmania donovani [13]): 0%
- Activity (Leishmania donovani [14]): 63%
- Activity (Leishmania donovani [15]): 12%
- Activity (Leishmania donovani [16]): 0%
- Activity (Leishmania donovani [17]): 0%
- Activity (Leishmania donovani [18]): 7%

Molecule: C=C[C@]1(C)O[C@@]2(C)CC[C@@H]3C(C)(C)C(=O)CC[C@@]3(C)[C@@H]2CC1=O
- Activity (Leishmania donovani [1]): 0%
- Activity (Leishmania donovani [2]): 31%
- Activity (Leishmania donovani [3]): 0%
- Activity (Leishmania donovani [4]): 36%
- Activity (Leishmania donovani [5]): 0%
- Activity (Leishmania donovani [6]): 0%
- Activity (Leishmania donovani [7]): 0%
- Activity (Leishmania donovani [8]): 11%
- Activity (Leishmania donovani [9]): 0%
- Activity (Leishmania donovani [10]): 0%
- Activity (Leishmania donovani [11]): 0%
- Activity (Leishmania donovani [12]): 0%
- Activity (Leishmania donovani [13]): 0%
- Activity (Leishmania donovani [14]): 25%
- Activity (Leishmania donovani [15]): 22%
- Activity (Leishmania donovani [16]): 0%
- Activity (Leishmania donovani [17]): 0%
- Activity (Leishmania donovani [18]): 7%

Molecule: C=C[C@@]1(CO)CC[C@H]2[C@]3(C)CCC[C@](C)(C(=O)OC)[C@H]3CC[C@]2(C)O1
- Activity (Leishmania donovani [1]): 0%
- Activity (Leishmania donovani [2]): 58%
- Activity (Leishmania donovani [3]): 79%
- Activity (Leishmania donovani [4]): 67%
- Activity (Leishmania donovani [5]): 0%
- Activity (Leishmania donovani [6]): 0%
- Activity (Leishmania donovani [7]): 13%
- Activity (Leishmania donovani [8]): 35%
- Activity (Leishmania donovani [9]): 17%
- Activity (Leishmania donovani [10]): 0%
- Activity (Leishmania donovani [11]): 0%
- Activity (Leishmania donovani [12]): 0%
- Activity (Leishmania donovani [13]): 0%
- Activity (Leishmania donovani [14]): 62%
- Activity (Leishmania donovani [15]): 47%
- Activity (Leishmania donovani [16]): 12%
- Activity (Leishmania donovani [17]): 0%
- Activity (Leishmania donovani [18]): 26%
